For 73 compounds, EC50, IC50 and outcome results are on record in PubChem BioAssay AID179 (DTP/NCI, 2004).

What is called pEC50 is −log10 of the EC50, conventionally taken in molar units. The term pIC50 denotes −log10 of the IC50, conventionally taken in molar units. Low readings indicate a high IC50, high ones a low IC50.

For the test, the system named is CEM cells HIV-1 protection, formazan growth assay. Description: NCI AIDS Antiviral Assay. The following applies: for pIC50: measured here: growth of uninfected CEM cells. The method, boiled down:
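Protection of CEM cells against HIV-1 measured as cell growth via soluble formazan read-out, with five concentrations tested on both infected and uninfected cells; failure to protect may reflect toxicity.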

Molecules are shown by their SMILES. pEC50, pIC50: −log10 of the molar value. Active and inactive are the calls of the source.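 How the source made its calls: active means compounds giving half or more protection of infected cells from virus-caused growth loss, again on retest; inactive means the rest.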 Bounds are passed on as bounds.

In the case of `Cc1cc(Cl)ccc1N=C1NC(=O)C(CC(=O)Nc2ccc(Cl)cc2Cl)S1` (configuration not stated), the pEC50 is under 3.39 and the pIC50 was 3.65.

As to `Nc1cc(Cl)ccc1SSc1ccc(Cl)cc1N`, the pEC50 is under 3.70 and the pIC50 is 4.92. In the same order, the values of `CCN(CC)c1ccc2c(c1)Nc1cc(=C(C#N)C#N)c3ccccc3c1=N2` are under 4.71 and under 4.71.

As for `CC1=C(C(=O)Nc2cccc(Cl)c2)C(c2ccccc2O)C(C(=O)Nc2cccc(Cl)c2)=C(C)N1`, the pEC50 is under 4.30 and the pIC50 is 4.92. The like results for `CN(N=O)C(=O)N[C@@H](C=O)[C@@H](O)[C@H](O)[C@H](O)CO` were, in that order, under 3.03 and under 3.03. Consider `Cc1nc2c(O)cc(Br)c(O)c2nc1C`, for which the outcome was inactive.

In the case of `Nc1ccc(C(=O)NN2C(=O)C(Cl)C2c2ccc([N+](=O)[O-])cc2)cc1` (configuration not stated), the pEC50 was under 3.70 and the pIC50 is 5.39. Consider `COc1ccc(/C=C2\C=Cc3ccccc32)cc1`, for which the pEC50 was under 4.79 and the pIC50 is 4.86. With `Brc1ccc2c(c1)C1(c3cc(Br)ccc3-2)c2cc(Br)ccc2-c2ccc(Br)cc21`, the pEC50 was under 4.39 and the pIC50 was under 4.39. Regarding `O=C1CC(=O)N2C(=O)CC(=O)N12`, the pEC50 was under 3.27 and the pIC50 was under 3.27. In the case of `O=c1[nH]nc(Cc2ccccc2)n1/N=C/c1ccccc1Cl`, the pEC50 was under 3.70 and the pIC50 was under 3.70.

On to `O=C(Cn1ccnc1[N+](=O)[O-])NCc1ccccc1`, for which the outcome was inactive. For the compound `CC1=C(C(=O)OC23CC4CC(CC(C4)C2)C3)C(c2ccccc2OC(F)F)C(C(=O)OC23CC4CC(CC(C4)C2)C3)=C(C)N1` (configuration not stated), the pEC50 is under 4.00 and the pIC50 is under 4.00.

Regarding `N/C(=C\c1ccc(OCc2ccccc2)c(OCc2ccccc2)c1[N+](=O)[O-])C(=O)O`, the outcome was inactive. On to `C/C(O)=C(\C=N\C(N)=S)C(=O)Nc1ccccc1C`, for which the pEC50 is under 3.70 and the pIC50 is under 3.70. For the compound `COc1cccc2c(=O)c3c(n(C)c12)OC(C(C)C)C3` (configuration not stated), the pEC50 was under 3.47 and the pIC50 was 3.90.

For `Clc1ccc(CN2COc3c(ccc4cccnc34)C2)cc1Cl`, the pEC50 is under 3.70 and the pIC50 was 5.89.

In the case of `CCOC(=O)c1ccc(NC(=O)O/N=C(/Cl)CCl)cc1`, the pEC50 is under 3.70 and the pIC50 was 4.73. In the same order, the values of `CC1=N/C(=C\c2ccco2)C(=O)O1` are under 3.27 and under 3.27. The like results for `COc1ccccc1CO[C@]1(C)CNCC(C)(C)NC(=O)[C@@](C)(OCc2ccccc2OC)CNCC(C)(C)NC1=O` were, in that order, under 3.70 and under 3.70. In the same order, the values of `CC1(C)CC2CC(CC(C)(C)C2=O)C1=O` are under 3.06 and under 3.06. On to `C/C(=N/N)c1sc(-c2nc(C)c(/C(C)=N\N)s2)nc1C`, for which the pEC50 is under 4.21 and the pIC50 was under 4.21. Regarding `Cc1nc2c(c(N3CCN(C)CC3)n1)Cc1ccccc1-2`, the pEC50 was under 3.70 and the pIC50 is 4.38. The like results for `CC(Oc1ccc(OCC2CCCCC2)cc1)C(=O)N(CCO)CCO` (configuration not stated) were, in that order, under 3.16 and 4.35. The like results for `COc1ccc2c(c1)[n+](=O)c(C(C)=O)c(C)n2[O-]` were, in that order, under 3.00 and 3.45. In the same order, the values of `O=C(C=Nc1ccccc1C(=O)[O-])c1ccco1.O=C(C=Nc1ccccc1C(=O)[O-])c1ccco1.[Zn+2]` are under 5.86 and under 5.86. Take `CCC1(CC=C(C)C)Oc2cccnc2-n2cccc2C1=O` (configuration not stated): the pEC50 was under 3.70 and the negative logarithm of the IC50 (pIC50) was 3.93. The like results for `C=CCNC(=O)N(CCC)CCCC(NC(C)=O)C(=O)NCc1ccccc1` (configuration not stated) were, in that order, under 3.19 and under 3.19.

`O=P1(Nc2ccc(/C=C3\C=Cc4ccccc43)cc2)NCCCO1` (configuration not stated): the pEC50 is under 4.40 and the pIC50 is 4.64. On to `COc1cccc(C2c3cc4c(cc3OC(NNC(N)=O)C2C)OCO4)c1OC` (configuration not stated), for which the pEC50 was under 3.70 and the pIC50 was 5.09. In the same order, the values of `[C-]#[O+].[C-]#[O+].[C-]#[O+].[C-]#[O+].[Mo].c1ccc(P(CCP(CCP(c2ccccc2)c2ccccc2)c2ccccc2)CCP(c2ccccc2)c2ccccc2)cc1` (configuration not stated) are under 6.21 and under 6.21. Consider `CCCCCCN(CCCCCC)C(=O)Cc1c2n(c3ccccc13)Cc1ccccc1-2`, for which the pEC50 was under 5.20 and the pIC50 is under 5.20. With `CN(C)C(=N/O)/C(=N\O)N(C)C`, the outcome was inactive. On the same count and under the same terms, the same measure for `CSc1nc(NC2OCC(O)C(O)C2O)cc(=O)[nH]1` (configuration not stated): “inactive”. Regarding `CC(=O)CC(=O)N1CCOC1=O`, the pEC50 is under 3.70 and the pIC50 was 4.44. In the same order, the values of `O=c1ccc2ccc(O)cc2o1` are under 2.81 and 3.52.

Consider `CC1C2CC(CC(=O)N2)C1(C)C` (configuration not stated), for which the pEC50 was under 2.83 and the pIC50 was 3.12. On to `O=c1c2cccc3cccc(c4oc5c6cccc7cccc(c(=O)c5c14)c76)c32`, for which the outcome was inactive. As to `CCN(CC)c1ccc(N=Nc2ccc(-c3nc4cccnc4s3)cc2)cc1`, the pEC50 is under 5.29 and the pIC50 is under 5.29. Consider `CCC(=O)/C=C/c1ccccc1`, for which the pEC50 is under 3.70 and the pIC50 is 4.03.

Consider `CC(C)Oc1cc2c(c3oc(=O)cc(CCl)c13)C(=O)[C@H](C)[C@@H](C)O2`, for which the pEC50 is under 3.70 and the pIC50 is 5.27. In the same order, the values of `O=C(Nc1ccc(Cl)cc1)C(=O)C1=C(O)c2ccccc2OC1` are under 3.99 and under 3.99. Take `Cc1c([O-])c([O-])c(C)c2c1OCO2.[C-]#[O+].[C-]#[O+].[C-]#[O+].[C-]#[O+].[Re]`: the pEC50 was under 3.70 and the pIC50 is 4.50. In the same order, the values of `O=S(=O)(O)O` are under 3.58 and 4.39. In the same order, the values of `CSc1cc(-c2ccccn2)nc(-c2ccccn2)c1` are under 5.70 and 6.57. The like results for `C/C(O)=C(\C=N\C(=S)Nc1cccc(C(F)(F)F)c1)C(=O)Nc1ccccc1C` were, in that order, under 4.00 and 4.12. Regarding `CCc1ccc(Cc2ccc(CC)c(NC(=O)C(=O)Cc3nc4ccccc4nc3C)c2CC)c(CC)c1NC(=O)C(=O)Cc1nc2ccccc2nc1C`, the pEC50 is under 4.87 and the pIC50 was under 4.87.

As to `Cn1c(=O)ccc2ccc(N(CCO)CCO)nc21`, the pEC50 was under 3.70 and the pIC50 was under 3.70.

Turning to `COc1cc2c(cc1OC)C(CSC)Cc1cc(OC)c(OC)cc1N(C)CCC2` (configuration not stated), the pEC50 was under 4.50 and the pIC50 is under 4.50. For the compound `O=C(CC1Sc2ccccc2NC1=O)Nc1cccc(Cl)c1` (configuration not stated), the pEC50 is under 4.25 and the pIC50 is under 4.25. Take `COc1ccc(-c2cc(-c3ccncc3)nc(N)c2-c2ccc(F)cc2)cc1`: the pEC50 was under 3.76 and the negative logarithm of the IC50 (pIC50) was under 3.76. Take `COc1ccc(C[C@H]2C(=O)OC[C@@H]2Cc2ccc(OC)c(OC)c2)cc1`: the pEC50 is under 3.70 and the pIC50 was 4.62. The like results for `CCN=C(c1ccc(NC(=O)c2ccc(C(=O)Nc3ccc(C(=NCC)N(CC)CC)cc3)cc2)cc1)N(CC)CC` were, in that order, under 3.70 and 4.19. Turning to `COC1C=CC(O)C(CO)O1` (configuration not stated), the outcome was inactive. Take `Cc1c(C)c2cc3c(=O)ccoc3c(C)c2oc1=O`: the pEC50 was under 4.69 and the pIC50 was under 4.69. On to `O=C(Nc1ccc(/C=C/c2ccc(NC(=O)c3ccc(O)cc3O)cc2S(=O)(=O)O)c(S(=O)(=O)O)c1)c1ccc(O)cc1O`, for which the pEC50 is under 3.82 and the pIC50 is 3.90.

As to `COCCN1C(=O)C(NC(C)=O)C1COC(C)(C)C` (configuration not stated), the pEC50 is under 3.04 and the pIC50 was under 3.04. Consider `N#CC1(C#N)C(c2ccccc2)C=CC12OCCCO2` (configuration not stated), for which the result was inactive. With `O=C1C[C@@]23CCC4(CC2=CCC[C@H]3O1)OCCO4`, the result was inactive. `CC(C)(C)C(=O)OCOP(=O)(OCOC(=O)C(C)(C)C)OCC1CCC(n2ccc(=O)[nH]c2=O)O1` (configuration not stated): the pEC50 is 5.47 and the pIC50 was 4.14.

Regarding `O=C(CC(=O)c1cccnc1)NC(=O)c1ccccc1`, the pEC50 is under 3.45 and the pIC50 is under 3.45. On to `CCOC(=O)c1c(N2CCCC2)[nH]c(=O)c(C(c2cccs2)c2c(O)c(C(=O)OCC)c(N3CCCC3)[nH]c2=O)c1O`, for which the pEC50 was under 3.70 and the pIC50 was 3.85.

For `CC(=O)N(C)c1ccc(N=CN(C)C)cc1`, the pEC50 was under 3.70 and the pIC50 was under 3.70. On to `CCCc1cc(=O)oc2c3c(c4c(c12)OC(C)(C)CC4)OC(C)[C@H](C)[C@@H]3O` (some centres not stated), for which the pEC50 was 4.83 and the pIC50 was 4.82. The like results for `ClC1C(Cl)C2CC1C1CC3OC3C21` (configuration not stated) were, in that order, under 3.70 and under 3.70. The like results for `CC(C)c1ccc(C2NC(=S)NC3=C2c2ccccc2C3=O)cc1` (configuration not stated) were, in that order, under 3.97 and 4.83. The like results for `O=C(/C=C/c1ccc(O)c(O)c1)OC1C[C@@](O)(C(=O)O)C[C@@H](O)[C@H]1OC(=O)/C=C/c1ccc(O)c(O)c1` (some centres not stated) were, in that order, under 3.46 and 3.81. Consider `CCCCCC=C1c2ccccc2C=Cc2ccccc21`, for which the pEC50 is under 3.70 and the negative-log IC50 (pIC50) is 4.14. As for `COc1ccc([C@@]23CCC(=O)C[C@@H]2N(C)CC3)cc1OC`, the pEC50 was under 3.70 and the pIC50 was under 3.70.

In the case of `O=C(C[n+]1ccccc1Br)c1ccc2ccccc2c1`, the pEC50 is under 3.70 and the pIC50 was 5.02. In the same order, the values of `CC1(C)C(=O)C(C)(C)C12SSC1(S2)C(C)(C)C(=O)C1(C)C` are under 3.70 and 4.09. In the same order, the values of `Cc1nc2ccccc2c2nnc(SCC(=O)N(Cc3ccccc3)c3ccccc3)n12` are under 3.70 and under 3.70. The like results for `COC(=O)/C=C(\C)C(=O)N(C)c1ccccc1I` were, in that order, under 3.70 and 3.91.
